The source of these data is US6987101B1, “Therapeutic gestagens for the treatment of premenstrual dysphoric disorder” (Schering Aktiengesellschaft, priority 1996, dated 2006).

This experiment relates to premenstrual dysphoric disorder (PMDD) symptoms. The experiment can be described thus: Oral treatment of women classified as PMDD patients over 4 to 6 cycles, re-evaluation of symptom criteria 1 to 11. The format is in vivo, fertile women. To be noted: 3 mg drospirenone together with 30 μg ethinylestradiol orally daily, day 1 to day 21 of the cycle, then 7 pill-free or placebo days; evaluated after 4 to 6 cycles; all of the women treated. The source says: In the prospective evaluation by recording the symptoms of the patient over 2 or 3 menstrual cycles, 5 (or more) of the symptoms that are listed below occur during the last week of the luteal phase, but no longer occur postmenstrually. At least one of the symptoms must be the first, second, third or fourth symptom below. • 1. Noticeably stressed mental state, feelings of hopelessness or self-doubt • 2. Noticeable feeling of anxiety, tension, feeling of “being on the edge” • 3. Noticeable emotional tendencies (e.g., suddenly feeling sad or fretful or increased sensitivity to rejection) • 4. Lasting and noticeable feelings of unease or irritability or increased interpersonal conflicts • 5. Decreasing interest in conventional activities (e.g., work, school, friends, hobbies) • 6. Subjective sensation of concentration difficulties • 7. Lethargy, slight exhaustion or noticeable lack of energy • 8. Noticeable change in appetite, overeating or special food cravings • 9. […]
Fertile women, who were classified according to the above-indicated criteria 1. to 11. as PMDD patients, are treated orally over at least 4 cycles, in each case from day 1 to day 21 of the cycle daily, with an amount of 3 mg of drospirenone together with 30 μg of ethinylestradiol. […] After a treatment over 4 to 6 cycles, the symptoms that fall into the category criteria 1. to 11. are carefully evaluated again.

With `C[C@]12CCC(=O)C=C1[C@@H]1C[C@@H]1[C@H]1[C@@H]3[C@@H]4C[C@@H]4[C@@]4(CCC(=O)O4)[C@@]3(C)CC[C@@H]12` [drospirenone], the “improvement relative to at least one of the PMDD symptoms that occurred before the beginning of the treatment (not only the 11th symptom)” value is recorded as “significant improvement”.
